Laboratory results published in patent publication US20130324412A1, “N-ALKOXYAMIDES OF 6-(SUBSTITUTED PHENYL)-4-AMINOPICOLINATES AND 2-(SUBSTITUTED PHENYL)-6-AMINO-4-PYRIMIDINECARBOXYLATES AND THEIR USE AS SELECTIVE HERBICIDES FOR CROPS” (DOW AGROSCIENCES LLC, priority 2009, published 2013).

Legend:
Type in all cases: in vivo
[1] = tested on: corn (Zea mays); assay: General postemergence herbicidal activity, corn; conditions: post-emergence, 336 h, postemergence, after 14 d, 0 = no injury, 100 = complete kill, read-out: ZEAMX % Visual Injury; for plant injury at 35 g/ha: 35 g ai/ha; for plant injury at 70 g/ha: 70 g ai/ha; for plant injury at 140 g/ha: 140 g ai/ha
Experimental: (§1) Seeds or nutlets of the desired test plant species were planted in Sun Gro MetroMix® 360 planting mixture, which typically has a pH of 6.0 to 6.8 and an organic matter content of about 30 percent, in plastic pots with a surface area of 64 square centimeters (cm^2). When required to ensure good germination and healthy plants, a fungicide treatment and/or other chemical or physical treatment was applied. The plants were grown for 7-21 days (d) in a greenhouse with an approximate 15-hour (h) photoperiod which was maintained at about 23-29° C. during the day and 22-28° C. during the night. Nutrients and water were added on a regular basis and supplemental lighting was provided with overhead metal halide 1000-Watt lamps as necessary. The plants were employed for testing when they reached the first or second true leaf stage.
(§2) A weighed amount, determined by the highest rate to be tested, of each test compound was dissolved in 4 mL of a 97:3 volume per volume (v/v) mixture of acetone and dimethyl sulfoxide (DMSO) to obtain concentrated stock solutions. […] The concentrated stock solutions obtained were diluted with 20 mL of an aqueous mixture containing acetone, water, isopropyl alcohol, DMSO, Atplus 411F crop oil concentrate, and Triton X-155 surfactant in a 48.5:39:10:1.5:1.0:0.02 v/v ratio to obtain spray solutions containing the highest application rates. Additional application rates were obtained by serial dilution of 12 mL of the high rate solution into a solution containing 2 mL of 97:3 v/v mixture of acetone and DMSO and 10 mL of an aqueous mixture containing acetone, water, isopropyl alcohol, DMSO, Atplus 411F crop oil concentrate, and Triton X-155 surfactant in a 48.5:39:10:1.5:1.0:0.02 v/v ratio to obtain ½×, ¼×, ⅛× and 1/16× rates of the high rate. Compound requirements are based upon a 12 mL application volume at a rate of 187 liters per hectare (L/ha). Formulated compounds were applied to the plant material with an overhead Mandel track sprayer equipped with 8002E nozzles calibrated to deliver 187 L/ha over an application area of 0.503 square meters (m^2) at a spray height of 18 inches (43 cm) above the average plant canopy height. Control plants were sprayed in the same manner with the solvent blank.
(§3) The treated plants and control plants were placed in a greenhouse as described above and watered by sub-irrigation to prevent wash-off of the test compounds. After 14 d, the condition of the test plants as compared with that of the untreated plants was determined visually and scored on a scale of 0 to 100 percent where 0 corresponds to no injury and 100 corresponds to complete kill.

[2] = tested on: velvetleaf (Abutilon theophrasti); assay: General postemergence herbicidal activity, velvetleaf; conditions: post-emergence, 336 h, postemergence, after 14 d, 0 = no injury, 100 = complete kill, read-out: ABUTH % Visual Injury; for pest or weed control at 35 g/ha: 35 g ai/ha; for pest or weed control at 70 g/ha: 70 g ai/ha; for pest or weed control at 140 g/ha: 140 g ai/ha
Experimental: as §1, §2, §3

[3] = tested on: lambsquarters (Chenopodium album); assay: General postemergence herbicidal activity, lambsquarters; conditions: post-emergence, 336 h, postemergence, after 14 d, 0 = no injury, 100 = complete kill, read-out: CHEAL % Visual Injury; for pest or weed control at 35 g/ha: 35 g ai/ha; for pest or weed control at 70 g/ha: 70 g ai/ha; for pest or weed control at 140 g/ha: 140 g ai/ha
Experimental: as §1, §2, §3

[4] = tested on: wild buckwheat (Polygonum convululus); assay: General postemergence herbicidal activity, wild buckwheat; conditions: post-emergence, 336 h, postemergence, after 14 d, 0 = no injury, 100 = complete kill, read-out: POLCO % Visual Injury; for pest or weed control at 35 g/ha: 35 g ai/ha; for pest or weed control at 70 g/ha: 70 g ai/ha; for pest or weed control at 140 g/ha: 140 g ai/ha
Experimental: as §1, §2, §3

Compound `COc1c(Cl)ccc(-c2cc(N)c(Cl)c(C(=O)NOCc3ccccc3)n2)c1F` [Compound 5, 4-Amino-N-(benzyloxy)-3-chloro-6-(4-chloro-2-fluoro-3-methoxyphenyl)picolinamide] has a plant injury at 35 g/ha [1] of 0%, a pest or weed control at 35 g/ha [2] of 100% and a pest or weed control at 35 g/ha [3] of 100%. It also gave a pest or weed control at 35 g/ha [4] of 100%.

For `COc1c(Cl)ccc(-c2cc(N)c(Cl)c(C(=O)N(C)OC)n2)c1F` [Compound 6, 4-Amino-3-chloro-6-(4-chloro-2-fluoro-3-methoxyphenyl)-N-methoxy-N-methyl-picolinamide], the plant injury at 70 g/ha [1] was 0%, the pest or weed control at 70 g/ha [2] was 100% and the pest or weed control at 70 g/ha [3] was 100%. For the same compound, the pest or weed control at 70 g/ha [4] was 100%.

`CCCONC(=O)c1nc(-c2ccc(Cl)c(OC)c2F)cc(N)c1Cl` [Compound 7, 4-Amino-3-chloro-6-(4-chloro-2-fluoro-3-methoxyphenyl)-N-propoxypicolinamide] was tested, and the plant injury at 35 g/ha [1] was 25%, the pest or weed control at 35 g/ha [2] was 100% and the pest or weed control at 35 g/ha [3] was 100%. It also gave a pest or weed control at 35 g/ha [4] of 100%.

With `COc1c(Cl)ccc(-c2cc(N)c(Cl)c(C(=O)NOC(C)C)n2)c1F` [Compound 8, 4-Amino-3-chloro-6-(4-chloro-2-fluoro-3-methoxyphenyl)-N-isopropoxypicolinamide] the plant injury at 70 g/ha [1] was 0%, the pest or weed control at 70 g/ha [2] was 100% and the pest or weed control at 70 g/ha [3] was 100%. It also gave a pest or weed control at 70 g/ha [4] of 100%.

With `C=CCON(C(C)=O)C(=O)c1nc(-c2ccc(Cl)c(OC)c2F)nc(N)c1C=C` [Compound 9, N-Acetyl-N-(2-propenyloxy)-6-amino-2-(4-chloro-2-fluoro-3-methoxyphenyl)-5-vinylpyrimidine-4-carboxamide] the plant injury at 140 g/ha [1] was 25%, the pest or weed control at 140 g/ha [2] was 95% and the pest or weed control at 140 g/ha [3] was 100%. It also gave a pest or weed control at 140 g/ha [4] of 80%.

Work on `C=CCONC(=O)c1nc(-c2ccc(Cl)c(OC)c2F)nc(N)c1C=C` [Compound 10, N-(2-Propenyloxy)-6-amino-2-(4-chloro-2-fluoro-3-methoxyphenyl)-5-vinylpyrimidine-4-carboxamide] yielded a plant injury at 140 g/ha [1] of 15%, a pest or weed control at 140 g/ha [2] of 100% and a pest or weed control at 140 g/ha [3] of 85%. It also gave a pest or weed control at 140 g/ha [4] of 15%.

`C=CCONC(=O)c1nc(C2CC2)nc(N)c1Cl` [Compound 11, N-(2-Propenyloxy)-6-amino-5-chloro-2-cyclopropylpyrimidine-4-carboxamide] gave a plant injury at 140 g/ha [1] of 20%, a pest or weed control at 140 g/ha [2] of 40% and a pest or weed control at 140 g/ha [3] of 100%. The pest or weed control at 140 g/ha [4] was 100%.

Work on `COc1c(Cl)ccc(-c2cc(N)c(Cl)c(C(=O)NOC3CCCCO3)n2)c1F` (stereo not drawn) [Compound 12, 4-amino-3-chloro-6-(4-chloro-2-fluoro-3-methoxyphenyl)-N-(tetrahydro-2H-pyran-2-yloxy)picolinamide] yielded a plant injury at 70 g/ha [1] of 0%, a pest or weed control at 70 g/ha [2] of 100% and a pest or weed control at 70 g/ha [3] of 100%. For the same compound, the pest or weed control at 70 g/ha [4] was 100%.

In the case of `C#CCONC(=O)c1nc(-c2ccc(Cl)c(OC)c2F)cc(N)c1Cl` [Compound 13, 4-Amino-3-chloro-6-(4-chloro-2-fluoro-3-methoxyphenyl)-N-(2-propynyloxy)picolinamide], the plant injury at 70 g/ha [1] is reported as 0%, the pest or weed control at 70 g/ha [2] is reported as 100% and the pest or weed control at 70 g/ha [3] is reported as 100%. It also gave a pest or weed control at 70 g/ha [4] of 100%.

`COc1c(Cl)ccc(-c2cc(N)c(Cl)c(C(=O)NOCc3ccc(C)cc3)n2)c1F` [Compound 14, 4-Amino-3-chloro-6-(4-chloro-2-fluoro-3-methoxyphenyl)-N-(4-methyl-benzyloxy)picolinamide] was tested, and the plant injury at 70 g/ha [1] was 15%, the pest or weed control at 70 g/ha [2] was 100% and the pest or weed control at 70 g/ha [3] was 100%. For the same compound, the pest or weed control at 70 g/ha [4] was 100%.

Compound `COc1c(Cl)ccc(-c2cc(N)c(Cl)c(C(=O)NOCc3ccc(Cl)cc3)n2)c1F` [Compound 15, 4-Amino-3-chloro-6-(4-chloro-2-fluoro-3-methoxyphenyl)-N-(4-chloro-benzyloxy)picolinamide] has a plant injury at 70 g/ha [1] of 10%, a pest or weed control at 70 g/ha [2] of 100% and a pest or weed control at 70 g/ha [3] of 100%. It also gave a pest or weed control at 70 g/ha [4] of 100%.

`COC[C@H]1O[C@H](ONC(=O)c2nc(-c3ccc(Cl)c(OC)c3F)cc(N)c2Cl)[C@H](OC)[C@@H](OC)[C@@H]1OC` [Compound 16, 4-Amino-3-chloro-6-(4-chloro-2-fluoro-3-methoxyphenyl)-N-((2R,3R,4S,5R,6R)-3,4,5-trimethoxy-6-(methoxymethyl)tetrahydro-2H-pyran-2-yloxy)picolinamide] gave a plant injury at 70 g/ha [1] of 10%, a pest or weed control at 70 g/ha [2] of 100% and a pest or weed control at 70 g/ha [3] of 100%. It also gave a pest or weed control at 70 g/ha [4] of 95%.

`COc1c(Cl)ccc(-c2cc(N)c(Cl)c(C(=O)NOC3CCCO3)n2)c1F` (stereo not drawn) [Compound 17, 4-Amino-3-chloro-6-(4-chloro-2-fluoro-3-methoxyphenyl)-N-(tetrahydrofuran-2-yloxy)picolinamide] showed a plant injury at 70 g/ha [1] of 10%, a pest or weed control at 70 g/ha [2] of 100% and a pest or weed control at 70 g/ha [3] of 100%. It also gave a pest or weed control at 70 g/ha [4] of 100%.

`COc1c(Cl)ccc(-c2cc(N)c(Cl)c(C(=O)NOC3C=CCCC3)n2)c1F` (stereo not drawn) [Compound 18, 4-Amino-3-chloro-6-(4-chloro-2-fluoro-3-methoxyphenyl)-N-(cyclohex-2-enyl-oxy)picolinamide] was tested, and the plant injury at 140 g/ha [1] was 5%, the pest or weed control at 140 g/ha [2] was 100% and the pest or weed control at 140 g/ha [3] was 100%. The pest or weed control at 140 g/ha [4] was 100%.

For `COc1c(Cl)ccc(-c2cc(N)c(Cl)c(C(=O)NOCC(=O)O)n2)c1F` [Compound 19, 2-(4-Amino-3-chloro-6-(4-chloro-2-fluoro-3-methoxyphenyl)picolinamidooxy)acetic acid], the plant injury at 35 g/ha [1] was 25%, the pest or weed control at 35 g/ha [2] was 85% and the pest or weed control at 35 g/ha [3] was 100%. For the same compound, the pest or weed control at 35 g/ha [4] was 85%.

`C=C(C)CONC(=O)c1nc(-c2ccc(Cl)c(OC)c2F)cc(N)c1Cl` [Compound 28, 4-Amino-3-chloro-6-(4-chloro-2-fluoro-3-methoxyphenyl)-N-(2-methyl-2-propenyl-oxy)picolinamide] gave a plant injury at 35 g/ha [1] of 25%, a pest or weed control at 35 g/ha [2] of 100% and a pest or weed control at 35 g/ha [3] of 100%.

With `COc1c(Cl)ccc(-c2cc(N)c(Cl)c(C(=O)NOCc3cncs3)n2)c1F` [Compound 36, 4-Amino-3-chloro-6-(4-chloro-2-fluoro-3-methoxyphenyl)-N-(thiazol-5-yl-methoxy)picolinamide] the plant injury at 35 g/ha [1] was 25%, the pest or weed control at 35 g/ha [2] was 100% and the pest or weed control at 35 g/ha [3] was 100%.

`COc1c(Cl)ccc(-c2cc(N)c(Cl)c(C(=O)NOCc3nnsc3Cl)n2)c1F` [Compound 47, 4-Amino-3-chloro-N-((5-chloro-1,2,3-thiadiazol-4-yl)methoxy)-6-(4-chloro-2-fluoro-3-methoxyphenyl)picolinamide] was tested, and the plant injury at 17.5 g/ha ([1]; 17.5 g ai/ha) was 35%, the pest or weed control at 17.5 g/ha ([2]; 17.5 g ai/ha) was 100% and the pest or weed control at 17.5 g/ha ([3]; 17.5 g ai/ha) was 100%.
